Where only a bound is given, the exact number is not on record here.

Vascular endothelial growth factor receptor 2, sequence (O08775 whole entry): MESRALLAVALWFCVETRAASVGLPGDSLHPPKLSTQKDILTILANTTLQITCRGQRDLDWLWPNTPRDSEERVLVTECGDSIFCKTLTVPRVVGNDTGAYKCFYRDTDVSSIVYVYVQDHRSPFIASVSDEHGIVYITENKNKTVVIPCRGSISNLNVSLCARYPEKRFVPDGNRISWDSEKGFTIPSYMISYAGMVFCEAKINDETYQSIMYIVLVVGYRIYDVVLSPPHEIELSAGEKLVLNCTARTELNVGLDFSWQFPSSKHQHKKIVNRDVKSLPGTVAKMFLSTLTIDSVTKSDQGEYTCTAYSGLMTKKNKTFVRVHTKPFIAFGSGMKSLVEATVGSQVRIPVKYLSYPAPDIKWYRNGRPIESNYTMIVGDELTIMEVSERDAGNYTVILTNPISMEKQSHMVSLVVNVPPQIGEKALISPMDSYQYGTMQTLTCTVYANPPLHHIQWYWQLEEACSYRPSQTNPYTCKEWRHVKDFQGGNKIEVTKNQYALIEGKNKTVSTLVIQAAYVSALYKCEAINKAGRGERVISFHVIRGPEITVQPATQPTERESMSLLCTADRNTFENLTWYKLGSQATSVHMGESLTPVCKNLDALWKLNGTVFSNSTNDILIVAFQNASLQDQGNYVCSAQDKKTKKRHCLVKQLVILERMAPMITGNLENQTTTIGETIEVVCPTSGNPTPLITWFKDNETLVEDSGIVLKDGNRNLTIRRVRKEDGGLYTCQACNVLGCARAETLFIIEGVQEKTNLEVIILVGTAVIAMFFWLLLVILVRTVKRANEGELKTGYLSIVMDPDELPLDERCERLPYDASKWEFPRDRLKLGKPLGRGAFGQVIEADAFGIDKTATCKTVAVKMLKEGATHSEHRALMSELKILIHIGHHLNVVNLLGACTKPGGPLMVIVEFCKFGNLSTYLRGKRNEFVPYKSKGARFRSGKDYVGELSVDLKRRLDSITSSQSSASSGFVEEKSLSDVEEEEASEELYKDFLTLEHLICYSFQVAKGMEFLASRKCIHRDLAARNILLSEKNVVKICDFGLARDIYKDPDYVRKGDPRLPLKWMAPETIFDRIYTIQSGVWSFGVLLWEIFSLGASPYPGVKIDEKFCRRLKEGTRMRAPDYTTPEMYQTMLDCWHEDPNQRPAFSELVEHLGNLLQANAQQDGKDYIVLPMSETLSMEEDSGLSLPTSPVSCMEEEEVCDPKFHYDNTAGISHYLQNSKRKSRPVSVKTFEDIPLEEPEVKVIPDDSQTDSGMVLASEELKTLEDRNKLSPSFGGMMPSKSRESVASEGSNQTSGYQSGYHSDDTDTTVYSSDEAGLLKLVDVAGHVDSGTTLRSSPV

One assay deals with Cyclin-dependent kinase/G2/mitotic-specific cyclin- 1 (Homo sapiens, UniProt P06493). Description: Kinase Inhibition Assay.
Cyclin-dependent kinase/G2/mitotic-specific cyclin- 1, sequence (P06493 whole entry): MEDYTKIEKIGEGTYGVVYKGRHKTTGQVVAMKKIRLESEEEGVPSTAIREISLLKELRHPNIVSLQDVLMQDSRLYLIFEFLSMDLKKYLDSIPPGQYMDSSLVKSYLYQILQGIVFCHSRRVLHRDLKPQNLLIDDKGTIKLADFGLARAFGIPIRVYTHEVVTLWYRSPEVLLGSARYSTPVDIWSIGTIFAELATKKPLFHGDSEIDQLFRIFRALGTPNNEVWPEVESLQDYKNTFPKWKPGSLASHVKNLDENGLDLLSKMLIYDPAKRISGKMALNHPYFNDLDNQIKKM
Cyclin-dependent kinase/G2/mitotic-specific cyclin- 1, sequence (P14635 whole entry, further chain): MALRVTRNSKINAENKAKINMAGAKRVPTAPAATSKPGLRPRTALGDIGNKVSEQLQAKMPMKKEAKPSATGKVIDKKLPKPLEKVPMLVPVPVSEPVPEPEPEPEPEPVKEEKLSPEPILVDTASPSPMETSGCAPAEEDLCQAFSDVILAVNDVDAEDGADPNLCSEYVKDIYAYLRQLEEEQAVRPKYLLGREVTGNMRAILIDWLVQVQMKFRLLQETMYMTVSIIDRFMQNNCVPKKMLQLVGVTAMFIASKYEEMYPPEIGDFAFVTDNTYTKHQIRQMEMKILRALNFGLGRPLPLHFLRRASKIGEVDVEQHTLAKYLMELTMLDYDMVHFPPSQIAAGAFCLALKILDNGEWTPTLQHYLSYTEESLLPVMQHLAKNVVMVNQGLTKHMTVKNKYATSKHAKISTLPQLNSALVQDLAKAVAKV
Details: not given
On the procedure:
(§1) The enzyme was assayed with a biotinylated peptide substrate and test compounds in the presence of 5 uM ATP/[gamma-33P]ATP in a streptavidin coated FlashPlate (Perkin-Elmer, Boston, MA). Inhibition of the enzymatic activity due to the compound was measured by observing a reduced amount of 33P-gamma-ATP incorporated into the immobilized peptide relative to untreated controls. Linear regression analysis of the percent of inhibition by the test compound was used to calculate IC50 values.
One may read the IC50 as the concentration that gives 50% inhibition. A lower IC50 goes with higher potency. `OCCNc1cncc(-c2cncc(Nc3cccc(Cl)c3)n2)c1` [2-{5-[6-(3-Chloro-phenylamino)-pyrazin-2-yl]-pyridin-3-ylamino}-ethanol] displayed an IC50 greater than 10 µM.

The molecule `Nc1ncc(NCCCO)cc1-c1cncc(Nc2cccc(Cl)c2)n1` [3-[(6-amino-5-{6-[(3-chlorophenyl)amino]pyrazin-2-yl}pyridin-3-yl)amino]propan-1-ol] displayed an IC50 greater than 10 µM.

`OCCCNc1cnc(Cl)c(-c2cncc(Nc3cccc(Cl)c3)n2)c1` [3-[(6-chloro-5-{6-[(3-chlorophenyl)amino]pyrazin-2-yl}pyridin-3-yl)amino]propan-1-ol]: the IC50 is greater than 10 µM.

`OCCCNc1cncc(-c2cncc(Nc3cccc(Cl)c3)n2)c1` [3-[[5-[6-[(3-chlorophenyl)amino]pyrazinyl]-3-pyridinyl]amino]-1-propanol]: the IC50 was greater than 10 µM.

For `OCCCNc1cnc(F)c(-c2cncc(Nc3cccc(Cl)c3)n2)c1` [3-{5-[6-(3-Chloro-phenylamino)-pyrazin-2-yl]-6-fluoropyridin-3-ylamino}-propan-1-ol], the IC50 is greater than 10 µM.

On to `O=C(CCCNc1cncc(-c2cncc(Nc3cccc(Cl)c3)n2)c1)N1CCCCC1` [4-[(5-{6-[(3-chlorophenyl)amino]pyrazin-2-yl}pyridin-3-yl)amino]-1-(piperidin-1-yl)butan-1-one], for which the IC50 is greater than 10 µM.

`OCCCCNc1cncc(-c2cncc(Nc3cccc(Cl)c3)n2)c1` [4-[(5-{6-[(3-chlorophenyl)amino]pyrazin-2-yl}pyridin-3-yl)amino]butan-1-ol] had an IC50 greater than 10 µM.

`O=C(NCCCO)c1cncc(-c2cncc(Nc3cccc(Cl)c3)n2)c1` [5-[6-(3-Chloro-phenylamino)-pyrazin-2-yl]-N-(3-hydroxy-propyl)-nicotinamide]: the IC50 is greater than 10 µM.

Turning to `Clc1cccc(Nc2cncc(-c3cncc(NCCOc4ccccc4)c3)n2)c1` [(3-Chloro-phenyl)-{6-[5-(2-phenoxy-ethylamino)-pyridin-3-yl]-pyrazin-2-yl}-amine], the 50% inhibitory concentration (IC50) is greater than 10 µM.

In turn, `Clc1cccc(Nc2cncc(-c3cncc(NCCCn4cccn4)c3)n2)c1` [N-(3-Chlorophenyl)-6-[5-[[3-(1H-pyrazol-1-yl)propyl]-amino]-3-pyridinyl]-2-pyrazinamine] displayed an IC50 greater than 10 µM.

`Clc1cccc(Nc2cncc(-c3cncc(NCCCn4cncn4)c3)n2)c1` [N-(3-chlorophenyl)-6-(5-{[3-(1H-1,2,4-triazol-1-yl)propyl]amino}pyridin-3-yl)pyrazin-2-amine] returned an IC50 greater than 10 µM.

Consider `CN1CCN(CCCNc2cncc(-c3cncc(Nc4cccc(Cl)c4)n3)c2)CC1` [N-(3-chlorophenyl)-6-(5-{[3-(4-methylpiperazin-1-yl)propyl]amino}pyridin-3-yl)pyrazin-2-amine], for which the IC50 was greater than 10 µM.

Turning to `CN(C)CCCNc1cncc(-c2cncc(Nc3cccc(Cl)c3)n2)c1` [N-(3-chlorophenyl)-6-(5-{[3-(dimethylamino)propyl]amino}pyridin-3-yl)pyrazin-2-amine], the IC50 was greater than 10 µM.

Turning to `Clc1cccc(Nc2cncc(-c3cncc(NCCCc4ccccc4)c3)n2)c1` [N-(3-chlorophenyl)-6-{5-[(3-phenylpropyl)amino]pyridin-3-yl}pyrazin-2-amine], the IC50 was greater than 10 µM.

`Clc1cccc(Nc2cncc(-c3cncc(NCC4CCOCC4)c3)n2)c1` [N-(3-chlorophenyl)-6-{5-[(oxan-4-ylmethyl)amino]pyridin-3-yl}pyrazin-2-amine] yielded an IC50 greater than 10 µM.

`COCCC(=O)Nc1cncc(-c2cncc(Nc3cccc(Cl)c3)n2)c1` [N-(5-{6-[(3-chlorophenyl)amino]pyrazin-2-yl}pyridin-3-yl)-3-methoxypropanamide]: the IC50 was greater than 10 µM.

`CN(C)c1ccc(C(=O)Nc2cncc(-c3cncc(Nc4cccc(Cl)c4)n3)c2)cc1` [N-(5-{6-[(3-chlorophenyl)amino]pyrazin-2-yl}pyridin-3-yl)-4-(dimethylamino)benzamide]: the IC50 is greater than 10 µM.

On to `Clc1cccc(Nc2cncc(-c3cncc(NCCCN4CCOCC4)c3)n2)c1` [N-[5-[6-[(3-Chlorophenyl)amino]pyrazinyl]-3-pyridinyl]-4-morpholinepropanamine], for which the half-inhibitory concentration (IC50) was greater than 10 µM.

The molecule `O=C(COCc1ccccc1)Nc1cncc(-c2cncc(Nc3cccc(Cl)c3)n2)c1` [N-{5-[6-(3-Chloro-phenylamino)-pyrazin-2-yl]-pyridin-3-yl}-2-benzyloxy-acetamide] gave an IC50 greater than 10 µM.

Molecule `O=C(CO)Nc1cncc(-c2cncc(Nc3cccc(Cl)c3)n2)c1` [N-{5-[6-(3-Chloro-phenylamino)-pyrazin-2-yl]-pyridin-3-yl}-2-hydroxy-acetamide] registered an IC50 greater than 10 µM.

In turn, `COCC(=O)Nc1cncc(-c2cncc(Nc3cccc(Cl)c3)n2)c1` [N-{5-[6-(3-Chloro-phenylamino)-pyrazin-2-yl]-pyridin-3-yl}-2-methoxy-acetamide] returned an IC50 greater than 10 µM.

Turning to `O=C(COc1ccccc1)Nc1cncc(-c2cncc(Nc3cccc(Cl)c3)n2)c1` [N-{5-[6-(3-Chloro-phenylamino)-pyrazin-2-yl]-pyridin-3-yl}-2-phenoxy-acetamide], the half-maximal inhibitory concentration (IC50) is greater than 10 µM.

Take `CN(C)CCNc1cncc(-c2cncc(Nc3cccc(Cl)c3)n2)c1` [N-{5-[6-(3-Chloro-phenylamino)-pyrazin-2-yl]-pyridin-3-yl}-N ,N -dimethyl-ethane-1,2-diamine]: the IC50 was greater than 10 µM.

The same assay, now with this note: pH 8; 30 °C.
Turning to `OCCCNc1cncc(-c2cncc(Oc3cccc(Cl)c3)n2)c1` [3-({5-[6-(3-chlorophenoxy)pyrazin-2-yl]pyridin-3-yl}amino)propan-1-ol], the IC50 was greater than 10 µM.

`OCCCNc1cncc(-c2cncc(NCc3ccccc3)n2)c1` [3-[5-(6-Benzylamino-pyrazin-2-yl)-pyridin-3-yl-amino]-propan-1-ol] registered an IC50 greater than 10 µM.

In turn, `OCCCNc1cncc(-c2cncc(Nc3cccc(F)c3)n2)c1` [3-[(5-{6-[(3-fluorophenyl)amino]pyrazin-2-yl}pyridin-3-yl)amino]propan-1-ol] returned an IC50 greater than 10 µM.

The molecule `COc1cccc(Nc2cncc(-c3cncc(NCCCO)c3)n2)c1` [3-[[5-[6-[(3-Methoxyphenyl)amino]pyrazinyl]-3-pyridinyl]-1-propanol] displayed a half-maximal inhibitory concentration (IC50) greater than 10 µM.

In the case of `OCCCNc1cncc(-c2cncc(Nc3ccccc3Cl)n2)c1` [3-{5-[6-(2-Chloro-phenylamino)-pyrazin-2-yl]-pyridin-3-ylamino}-propan-1-ol], the IC50 is greater than 10 µM.

`Clc1ccc(Nc2cncc(-c3cncc(NCCCc4ccncc4)c3)n2)cc1` [(4-Chloro-phenyl)-{6-[5-(3-pyridin-4-yl-propylamino)pyridin-3-yl]-pyrazin-2-yl}-amine] registered an IC50 greater than 10 µM.

Consider `Clc1ccc(Nc2cncc(-c3cncc(NCCCc4ccncc4)c3)n2)cc1Cl` [N-(3,4-dichlorophenyl)-6-(5-{[3-(pyridin-4-yl)propyl]amino}pyridin-3-yl)pyrazin-2-amine], for which the concentration for half-maximal inhibition (IC50) is greater than 10 µM.

In turn, `Clc1cccc(Nc2cncc(-c3cncc(NCCCc4ccncc4)c3)n2)c1` [N-(3-chlorophenyl)-6-(5-{[3-(pyridin-4-yl)propyl]amino}pyridin-3-yl)pyrazin-2-amine] showed an IC50 greater than 10 µM.

Regarding `Nc1cncc(-c2cncc(Nc3cccc(Cl)c3)n2)c1` [[6-(5-Amino-pyridin-3-yl)-pyrazin-2-yl]-(3-chloro-phenyl)-amine], the IC50 was greater than 10 µM.

For a further assay, the target named is T1, Glycogen synthase kinase-3 beta [7-25] (Oryctolagus cuniculus, UniProt G1T8E2).
T1 construct: 7-25
Description: Kinase Inhibition Assay.
Details: not given
On the procedure:
as §1
Take `CN(C)CCNc1cncc(-c2cncc(Nc3cccc(Cl)c3)n2)c1` [N-{5-[6-(3-Chloro-phenylamino)-pyrazin-2-yl]-pyridin-3-yl}-N ,N -dimethyl-ethane-1,2-diamine]: the half-inhibitory concentration (IC50) is greater than 10 µM.

The target in a further assay is Platelet-derived growth factor receptor beta (Homo sapiens, UniProt P09619). Description: Kinase Inhibition Assay.
Platelet-derived growth factor receptor beta, sequence (P09619 whole entry): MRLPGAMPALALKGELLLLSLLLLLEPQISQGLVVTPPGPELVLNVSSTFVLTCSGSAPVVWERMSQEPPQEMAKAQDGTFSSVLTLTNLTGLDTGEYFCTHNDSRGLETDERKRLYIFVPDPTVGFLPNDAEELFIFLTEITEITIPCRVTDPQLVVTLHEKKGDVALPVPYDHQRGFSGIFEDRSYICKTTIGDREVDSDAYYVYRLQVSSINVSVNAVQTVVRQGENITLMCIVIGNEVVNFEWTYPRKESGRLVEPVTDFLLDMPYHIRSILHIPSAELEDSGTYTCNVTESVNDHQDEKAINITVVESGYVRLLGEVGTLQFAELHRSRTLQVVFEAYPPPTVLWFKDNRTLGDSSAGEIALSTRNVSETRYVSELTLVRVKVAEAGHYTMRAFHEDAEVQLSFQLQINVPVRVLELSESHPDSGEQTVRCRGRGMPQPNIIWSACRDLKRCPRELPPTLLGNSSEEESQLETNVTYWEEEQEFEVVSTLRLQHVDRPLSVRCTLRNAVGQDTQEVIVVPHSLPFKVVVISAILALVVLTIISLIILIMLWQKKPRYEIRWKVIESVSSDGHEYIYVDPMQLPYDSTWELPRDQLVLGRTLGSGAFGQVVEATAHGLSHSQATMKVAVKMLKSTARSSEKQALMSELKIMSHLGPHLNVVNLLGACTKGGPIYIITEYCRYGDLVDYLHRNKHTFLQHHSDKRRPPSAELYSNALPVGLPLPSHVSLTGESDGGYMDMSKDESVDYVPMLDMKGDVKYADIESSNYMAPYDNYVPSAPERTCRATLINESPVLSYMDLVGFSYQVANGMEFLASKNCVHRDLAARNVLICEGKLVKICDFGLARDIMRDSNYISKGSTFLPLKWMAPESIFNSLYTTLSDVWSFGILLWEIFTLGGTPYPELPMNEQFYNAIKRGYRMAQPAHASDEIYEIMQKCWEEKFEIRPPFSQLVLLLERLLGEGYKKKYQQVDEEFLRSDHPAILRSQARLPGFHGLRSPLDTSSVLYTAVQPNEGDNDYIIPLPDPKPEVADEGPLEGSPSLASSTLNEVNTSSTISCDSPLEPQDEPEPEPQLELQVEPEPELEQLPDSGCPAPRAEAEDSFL
Details: not given
On the procedure:
as §1
As to `CN(C)CCNc1cncc(-c2cncc(Nc3cccc(Cl)c3)n2)c1` [N-{5-[6-(3-Chloro-phenylamino)-pyrazin-2-yl]-pyridin-3-yl}-N ,N -dimethyl-ethane-1,2-diamine], the IC50 was greater than 10 µM.

A further assay addresses Vascular endothelial growth factor receptor 2 (Rattus norvegicus, UniProt O08775). Description: Kinase Inhibition Assay.
Details: not given
How it is done:
as §1
Regarding `CN(C)c1ccc(C(=O)Nc2cncc(-c3cncc(Nc4cccc(Cl)c4)n3)c2)cc1` [N-(5-{6-[(3-chlorophenyl)amino]pyrazin-2-yl}pyridin-3-yl)-4-(dimethylamino)benzamide], the half-maximal inhibitory concentration (IC50) is greater than 10 µM.

The record behind these values is BindingDB's records for doi:10.1021/jm058205b (Johnson & Johnson Pharmaceutical, 2005).
